These results are taken from patent publication US20220089568A1 (Janssen Biotech, Inc., priority 2019, published 2022).

For test [1], the target named is T1, human DHODH (Homo sapiens, UniProt Q02127).
T1 construct: purchased Proteros PR-0044
Briefly: DHODH Enzymatic Assay. The format is biochemical. Particulars: purified human DHODH; DCIP absorbance, end-point mode. The method, then: To detect DHODH enzyme activities, dichloroindophenol (DCIP) is added as the final electron acceptor in the assay. DCIP can accept electrons from the reduced coenzyme Q generated in the assay, or from dihydroorotate (DHO) via FMN by binding presumably to the ubiquinone pocket. […] The assay buffer contained […], pH 7.5, 150 mM NaCl, 0.5 mM EDTA, and 0.1% Triton X-100 in MilliQ water. Substrate consisting of 20 mM DHO, 5 mM CoQ6, and 1 mM DCIP in assay buffer, initiates the reaction. […] Absorbance measurements were obtained using the BMG Phera Star plate-reading spectrophotomer. Purified human DHODH was purchased from Proteros (cat. No. PR-0044). Chemicals were purchased from Sigma-Aldrich, Teknova, and Avanti Polar Lipids. Liquid handling was performed using Labcyte Echo and Formulatrix Tempest.

Test [2] deals with MOLM-13 cells. Briefly: MOLM-13 Cellular Assay. To be noted: Homo sapiens, 72 hours exposure, cell viability by CellTiter-Glo. It is filed as cell-based. On the procedure:
The day prior to assay set-up, cells were pelleted, resuspended in fresh media, counted, and cells were plated at 0.4×10^6 cell/mL in a T150 flask. […] Cells were exposed to different concentrations of test compounds at 37° C., 5% CO2 for 72 hours immediately after seeding.

The structures appear in SMILES notation. Where only a bound is given, the exact number is not on record here.

T1 sequence (Q02127 whole entry): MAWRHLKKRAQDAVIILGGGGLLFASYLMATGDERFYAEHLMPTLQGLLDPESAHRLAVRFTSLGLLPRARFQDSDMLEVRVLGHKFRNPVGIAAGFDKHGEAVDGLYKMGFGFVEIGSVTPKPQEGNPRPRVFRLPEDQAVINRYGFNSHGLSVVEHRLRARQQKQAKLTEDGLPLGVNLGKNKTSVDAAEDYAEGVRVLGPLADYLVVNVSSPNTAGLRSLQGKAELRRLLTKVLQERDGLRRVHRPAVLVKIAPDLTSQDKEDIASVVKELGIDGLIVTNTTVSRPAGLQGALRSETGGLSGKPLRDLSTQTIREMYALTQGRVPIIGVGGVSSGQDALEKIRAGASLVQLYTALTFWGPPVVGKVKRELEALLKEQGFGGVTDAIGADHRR

As usually defined, the EC50 is the midpoint of the concentration-response curve. A high value points to weaker potency. Turning to `CCn1c(CO)nn(-c2nc(O[C@@H](C)C(F)(F)F)c(C(=O)Nc3ccnnc3Cl)cc2F)c1=O` [Example 16, (S)-N-(3-Chloropyridazin-4-yl)-6-(4-ethyl-3-(hydroxymethyl)-5-oxo-4,5-dihydro-1H-1,2,4-triazol-1-yl)-5-fluoro-2-((1,1,1-trifluoropropan-2-yl)oxy)nicotinamide], the figures for the concentration giving a half-maximal response (EC50) in test [1] and in test [2] were 734 nM and more than 1000 nM, respectively.

For `CCn1c(CO)nn(-c2nc(O[C@@H](C)C(F)(F)F)c(C(=O)Nc3ccccc3F)cc2F)c1=O` [Example 2, (S)-6-(4-Ethyl-3-(hydroxymethyl)-5-oxo-4,5-dihydro-1H-1,2,4-triazol-1-yl)-5-fluoro-N-(2-fluorophenyl)-2-((1,1,1-trifluoropropan-2-yl)oxy)nicotinamide], the EC50 turned out to be 6.1 nM in test [1] and 5.2 nM in test [2].

As to `CCn1c(CO)nn(-c2nc(O[C@@H](C)C(F)(F)F)c(C(=O)Nc3cc(C)cnc3OC)cc2F)c1=O` [Example 41, (S)-6-(4-Ethyl-3-(hydroxymethyl)-5-oxo-4,5-dihydro-1H-1,2,4-triazol-1-yl)-5-fluoro-N-(2-methoxy-5-methylpyridin-3-yl)-2-((1,1,1-trifluoropropan-2-yl)oxy)nicotinamide], the EC50 was determined as 17.4 nM in test [1] and 52.4 nM in test [2].

In the case of `CCn1c(CO)nn(-c2nc(O[C@@H](C)C(F)(F)F)c(C(=O)Nc3c[nH]nc3C3CC3)cc2F)c1=O` [Example 62, (S)-N-(3-Cyclopropyl-1H-pyrazol-4-yl)-6-(4-ethyl-3-(hydroxymethyl)-5-oxo-4,5-dihydro-1H-1,2,4-triazol-1-yl)-5-fluoro-2-((1,1,1-trifluoropropan-2-yl)oxy)nicotinamide], the EC50 stood at 2.7 nM in test [1] and 8.5 nM in test [2].

As for `CCn1c(CO)nn(-c2nc(O[C@@H](C)C(F)(F)F)c(C(=O)Nc3c(C)cnc(OC)c3C)cc2F)c1=O` [Example 85, 6-[4-Ethyl-3-(hydroxymethyl)-5-oxo-1,2,4-triazol-1-yl]-5-fluoro-N-(2-methoxy-3,5-dimethyl-4-pyridyl)-2-[(1S)-2,2,2-trifluoro-1-methyl-ethoxy]pyridine-3-carboxamide], the results for the concentration for a half-maximal effect (EC50) in test [1] and in test [2] were 0.91 nM and 1.1 nM, respectively.

Regarding `CCn1c(CO)nn(-c2nc(O[C@@H](C)C(F)(F)F)c(C(=O)Nc3c(C)cc(Cl)nc3OC)cc2F)c1=O` [Example 113, N-(6-Chloro-2-methoxy-4-methyl-3-pyridyl)-6-[4-ethyl-3-(hydroxymethyl)-5-oxo-1,2,4-triazol-1-yl]-5-fluoro-2-[(1S)-2,2,2-trifluoro-1-methyl-ethoxy]pyridine-3-carboxamide], the EC50 in test [1] was found to be 1.07 nM; in test [2] it was 0.416 nM.

Consider `CCn1c(CO)nn(-c2nc(O[C@@H](C)C(F)(F)F)c(C(=O)Nc3snc(C)c3Cl)cc2F)c1=O` [Example 26, (S)-N-(4-Chloro-3-methylisothiazol-5-yl)-6-(4-ethyl-3-(hydroxymethyl)-5-oxo-4,5-dihydro-1H-1,2,4-triazol-1-yl)-5-fluoro-2-((1,1,1-trifluoropropan-2-yl)oxy)nicotinamide], for which the EC50 was 108 nM in test [1] and more than 100 nM in test [2].

As for `CCOc1ccnc(NC(=O)c2cc(F)c(-n3nc(CO)n(CC)c3=O)nc2O[C@@H](C)C(F)(F)F)c1Cl` [Example 105, N-(3-Chloro-4-ethoxy-2-pyridyl)-6-[4-ethyl-3-(hydroxymethyl)-5-oxo-1,2,4-triazol-1-yl]-5-fluoro-2-[(1S)-2,2,2-trifluoro-1-methyl-ethoxy]pyridine-3-carboxamide], the results for the EC50 in test [1] and in test [2] were 3.4 nM and 4.6 nM, respectively.

With `CCn1c(CO)nn(-c2nc(O[C@@H](C)C(F)(F)F)c(C(=O)Nc3c(C)n[nH]c3C)cc2F)c1=O` [Example 49, (S)-N-(3,5-Dimethyl-1H-pyrazol-4-yl)-6-(4-ethyl-3-(hydroxymethyl)-5-oxo-4,5-dihydro-1H-1,2,4-triazol-1-yl)-5-fluoro-2-((1,1,1-trifluoropropan-2-yl)oxy)nicotinamide], the values for the EC50 in test [1] and in test [2] were 6.4 nM and 21.1 nM, respectively.

`CCn1c(CO)nn(-c2nc(O[C@@H](C)C(F)(F)F)c(C(=O)Nc3cnsc3)cc2F)c1=O` [Example 12, (S)-6-(4-Ethyl-3-(hydroxymethyl)-5-oxo-4,5-dihydro-1H-1,2,4-triazol-1-yl)-5-fluoro-N-(isothiazol-4-yl)-2-((1,1,1-trifluoropropan-2-yl)oxy)nicotinamide]: the EC50 was found to be 324 nM in test [1] and 672 nM in test [2].

With `CCn1c(CO)nn(-c2nc(O[C@@H](C)C(F)(F)F)c(C(=O)Nc3c(F)cncc3C#N)cc2F)c1=O` [Example 29, (S)-N-(3-Cyano-5-fluoropyridin-4-yl)-6-(4-ethyl-3-(hydroxymethyl)-5-oxo-4,5-dihydro-1H-1,2,4-triazol-1-yl)-5-fluoro-2-((1,1,1-trifluoropropan-2-yl)oxy)nicotinamide], the figures for the EC50 in test [1] and in test [2] were 2.5 nM and 4.4 nM, respectively.

Regarding `CCn1c(CO)nn(-c2nc(O[C@@H](C)C(F)(F)F)c(C(=O)Nc3cc(C(F)F)ncc3F)cc2F)c1=O` [Example 81, N-[2-(Difluoromethyl)-5-fluoro-4-pyridyl]-6-[4-ethyl-3-(hydroxymethyl)-5-oxo-1,2,4-triazol-1-yl]-5-fluoro-2-[(1S)-2,2,2-trifluoro-1-methyl-ethoxy]pyridine-3-carboxamide], the values for the EC50 in test [1] and in test [2] were 568 nM and more than 100 nM, respectively.

Consider `CCCn1c(CF)nn(-c2nc(O[C@@H](C)C(F)(F)F)c(C(=O)Nc3c(C)ccnc3Cl)cc2F)c1=O` [Example 92, N-(2-Chloro-4-methyl-3-pyridyl)-5-fluoro-6-[3-(fluoromethyl)-5-oxo-4-propyl-1,2,4-triazol-1-yl]-2-[(1S)-2,2,2-trifluoro-1-methyl-ethoxy]pyridine-3-carboxamide], for which the EC50 in test [1] worked out at 0.639 nM; in test [2], 0.435 nM.

As for `CCn1c(CO)nn(-c2nc(O[C@@H](C)C(F)(F)F)c(C(=O)Nc3c(Cl)n[nH]c3C(F)(F)F)cc2F)c1=O` [Example 112, N-[3-Chloro-5-(trifluoromethyl)-1H-pyrazol-4-yl]-6-[4-ethyl-3-(hydroxymethyl)-5-oxo-1,2,4-triazol-1-yl]-5-fluoro-2-[(1S)-2,2,2-trifluoro-1-methyl-ethoxy]pyridine-3-carboxamide], the 50% effective concentration (EC50) was determined as 4.12 nM in test [1] and 0.303 nM in test [2].

On to `CCn1c(CO)nn(-c2nc(OC(C)C)c(C(=O)Nc3c(C)cnc(OC)c3Cl)cc2F)c1=O` [Example 88, N-(3-Chloro-2-methoxy-5-methyl-4-pyridyl)-6-[4-ethyl-3-(hydroxymethyl)-5-oxo-1,2,4-triazol-1-yl]-5-fluoro-2-isopropoxy-pyridine-3-carboxamide], for which the EC50 in test [1] came out at 1.16 nM; in test [2], 2.34 nM.

In the case of `CCn1c(CO)nn(-c2nc(O[C@@H](C)C(F)(F)F)c(C(=O)Nc3c(C(F)F)n[nH]c3C)cc2F)c1=O` [Example 124, N-[3-(Difluoromethyl)-5-methyl-1H-pyrazol-4-yl]-6-[4-ethyl-3-(hydroxymethyl)-5-oxo-1,2,4-triazol-1-yl]-5-fluoro-2-[(1S)-2,2,2-trifluoro-1-methyl-ethoxy]pyridine-3-carboxamide], the values for the EC50 in test [1] and in test [2] were 3.31 nM and 0.371 nM, respectively.

With `CCn1c(CO)nn(-c2nc(O[C@@H](C)C(F)(F)F)c(C(=O)Nc3c(Cl)ccnc3C)cc2F)c1=O` [Example 79, N-(4-Chloro-2-methyl-3-pyridyl)-6-[4-ethyl-3-(hydroxymethyl)-5-oxo-1,2,4-triazol-1-yl]-5-fluoro-2-[(1S)-2,2,2-trifluoro-1-methyl-ethoxy]pyridine-3-carboxamide], the EC50 worked out at 1.9 nM in test [1] and 5.3 nM in test [2].

As to `CCn1c(CO)nn(-c2nc(O[C@@H](C)C(F)(F)F)c(C(=O)Nc3c(C)cc(C)nc3OC)cc2F)c1=O` [Example 114, 6-[4-Ethyl-3-(hydroxymethyl)-5-oxo-1,2,4-triazol-1-yl]-5-fluoro-N-(2-methoxy-4,6-dimethyl-3-pyridyl)-2-[(1S)-2,2,2-trifluoro-1-methyl-ethoxy]pyridine-3-carboxamide], the EC50 in test [1] came out at 0.415 nM; in test [2] it was 0.368 nM.

As for `CCn1c(CO)nn(-c2nc(O[C@@H](C)C(F)(F)F)c(C(=O)Nc3nccn3C3CC3)cc2F)c1=O` [Example 73, (S)-N-(1-Cyclopropyl-1H-imidazol-2-yl)-6-(4-ethyl-3-(hydroxymethyl)-5-oxo-4,5-dihydro-1H-1,2,4-triazol-1-yl)-5-fluoro-2-((1,1,1-trifluoropropan-2-yl)oxy)nicotinamide], the EC50 in test [1] is 95.2 nM; in test [2] it was more than 100 nM.

Take `CCn1c(CO)nn(-c2nc(O[C@@H](C)C(F)(F)F)c(C(=O)Nc3cc(C)cnc3F)cc2F)c1=O` [Example 36, (S)-6-(4-Ethyl-3-(hydroxymethyl)-5-oxo-4,5-dihydro-1H-1,2,4-triazol-1-yl)-5-fluoro-N-(2-fluoro-5-methylpyridin-3-yl)-2-((1,1,1-trifluoropropan-2-yl)oxy)nicotinamide]: the EC50 is 58.6 nM in test [1] and more than 100 nM in test [2].

Take `CCn1c(CO)nn(-c2nc(O[C@@H](C)C(F)(F)F)c(C(=O)Nc3nccc(OC)c3Cl)cc2F)c1=O` [Example 104, N-(3-Chloro-4-methoxy-2-pyridyl)-6-[4-ethyl-3-(hydroxymethyl)-5-oxo-1,2,4-triazol-1-yl]-5-fluoro-2-[(1S)-2,2,2-trifluoro-1-methyl-ethoxy]pyridine-3-carboxamide]: the EC50 in test [1] is 6.62 nM; in test [2], 7.59 nM.
